Laboratory results from patent publication US4175081A, “5-Substituted thiadiazole ureas” (priority 1977, dated 1979).

Tests used:
Johnson grass (JG) [1] = assay: Post-emergence herbicide test; format: in vivo, Sorgum helepense; conditions: Sorghum halepense, 336 h, 4 lb/acre, two weeks after treatment
Procedure: (§1) Johnson grass (JG)--Sorgum helepense
(§2) All crop and weed species were planted individually in 3' plastic pots containing potting soil. Four seeds each of corn, cotton, and snapbeans were seeded to a depth equal to the diameter of the seed. All other species were surface seeded and sprinkled with screened soil in an amount sufficient to cover the seed. Immediately after planting, all pots were watered by sub-irrigation in greenhouse trays. Pots for the pre-emergence phase were seeded one day before treatment.
(§3) Planting dates for the post-emergence phase were varied so that all seedlings would reach the desired stage of development simultaneously. The proper stage of seedling development for treatment in the post-emergence phase is as follows:
(§4) Compounds were tested at rates of application equivalent to 8 lbs. of actual compound per acre in a spray volume of 38 gallons per acre. Spray hood constants required to deliver the above volume are as follows:
(§5) Formulations for spray applications were prepared in 50 ml volumes with the following three components:
(§6) Formulations for the 4 lbs/acre rate were prepared by adjusting the amount of active ingredient accordingly.
(§7) Spray applications were made in a hood containing a removable belt and fixed spray nozzle. For passage through the spray hood, one pot of each specie (pre-emergence phase) was placed on the rear half of the flat. Treatments were removed to the greenhouse after spraying. Watering during the observation period was done only by sub-irrigation.
(§8) Two weeks after treatment, pre- and post-emergence injury or control was visually rated, and the results were as shown in the following tables. Pre-emergence data are provided in TABLE III and post-emergence data are provided in TABLE IV, for compounds having the formula illustrated in TABLE I. Correspondingly, pre-emergence and post-emergence data, respectively, are set forth in TABLES V AND VI, for compounds having the formula illustrated in TABLE II.

Cotton (CT) = assay: Post-emergence herbicide test; format: in vivo, Gossypium hirsutum var. DPL smooth leaf; conditions: two weeks after treatment; for pest or weed control at 4483.4 g/ha: 4 lb/acre
Procedure: Cotton (CT)--Gossypium hirsutum var. DPL smooth leaf
as §2, §3
Cotton: first true leaf 1' in length; expanded cotyledons.
(§9) Spray hood constants required to deliver the above volume are as follows:
as §5, §6, §7, §8

Crabgrass (CG) [2] = assay: Post-emergence herbicide test; format: in vivo, Digitaria sanquinalis; conditions: two weeks after treatment; for pest or weed control at 4483.4 g/ha: 4 lb/acre
Procedure: (§10) Crabgrass (CG)--Digitaria sanquinalis
as §2, §3, §9
(§11) Formulations for spray applications were prepared in 50 ml volumes with the following three components: […]
as §7, §8

Barnyard grass (BG) [3] = assay: Post-emergence herbicide test; format: in vivo; conditions: Echinochloa crus-galli, 336 h, 4 lb/acre, two weeks after treatment
Procedure: (§12) Barnyard grass (BG)--Echinochloa crus-galli
as §2, §3, §4, §5, §6, §7, §8

Bean (BN) = assay: Post-emergence herbicide test; format: in vivo, Phaseolus vulgaris var. Black Valentine; conditions: two weeks after treatment; for pest or weed control at 4483.4 g/ha: 4 lb/acre
Procedure: Bean (BN)--Phaseolus vulgaris var. Black Valentine
as §2, §3
Beans: primary leaves expanded, growing point at primary leaf nodes.
as §9, §5, §6, §7, §8

Corn (CN) = assay: Post-emergence herbicide test; format: in vivo; conditions: Zea mays, 336 h, 4 lb/acre, two weeks after treatment
Procedure: as §2, §3, §4, §5, §6, §7, §8

Turnip (TP) [4] = assay: Post-emergence herbicide test; format: in vivo, Brassica sp.; conditions: two weeks after treatment; for pest or weed control at 4483.4 g/ha: 4 lb/acre
Procedure: (§13) Turnip (TP)--Brassica sp.
as §2, §3
Pigweed and turnips: 1 or 2 true leaves above visible cotyledons.
as §9, §11, §7, §8

Turnip (TP) [5] = assay: Pre-emergence herbicide test; format: in vivo, Brassica sp.; conditions: two weeks after treatment; for pest or weed control at 4483.4 g/ha: 4 lb/acre
Procedure: as §13, §2, §9, §11, §7, §8

Crabgrass (CG) [6] = assay: Pre-emergence herbicide test; format: in vivo, Digitaria sanquinalis; conditions: two weeks after treatment; for pest or weed control at 4483.4 g/ha: 4 lb/acre
Procedure: as §10, §2, §9, §11, §7, §8

Johnson grass (JG) [7] = assay: Pre-emergence herbicide test; format: in vivo, Sorgum helepense; conditions: Sorghum halepense, 336 h, two weeks after treatment
Procedure: as §1, §2, §4, §5, §6, §7, §8

Barnyard grass (BG) [8] = assay: Pre-emergence herbicide test; format: in vivo; conditions: Echinochloa crus-galli, 336 h, 4 lb/acre, two weeks after treatment
Procedure: as §12, §2, §4, §5, §6, §7, §8

[9] = Gossypium hirsutum, post-emergence, 336 h
[10] = Digitaria sanguinalis, post-emergence, 336 h
[11] = Phaseolus vulgaris, post-emergence, 336 h
[12] = Brassica rapa, post-emergence, 336 h
[13] = Brassica rapa, pre-emergence, 336 h
[14] = Digitaria sanguinalis, pre-emergence, 336 h

What does the source list for `CCCCCCSc1nnc(NC(=O)NC)s1` [Example 60]?
pest or weed control at 4483.4 g/ha (Johnson grass (JG) [1]): 70%; pest or weed control at 4483.4 g/ha (Cotton (CT); [9]): 70%; pest or weed control at 4483.4 g/ha (Crabgrass (CG) [2]; [10]): 80%; pest or weed control at 4483.4 g/ha (Barnyard grass (BG) [3]): 40%; pest or weed control at 4483.4 g/ha (Bean (BN); [11]): 100%; pest or weed control at 4483.4 g/ha (Corn (CN)): 60%; pest or weed control at 2241.7 g/ha (Turnip (TP) [4]; Brassica rapa, post-emergence, 336 h, 2 lb/acre): 100%; pest or weed control at 4483.4 g/ha (Turnip (TP) [4]; [12]): 100%

How did the pest or weed control at 4483.4 g/ha (Johnson grass (JG) [1]) turn out when `CCCCCS(=O)(=O)c1nnc(NC(=O)NC)s1` [Example 64] was run?
The pest or weed control at 4483.4 g/ha was 50%.

And the pest or weed control at 4483.4 g/ha (Cotton (CT); [9])?
The pest or weed control at 4483.4 g/ha was 70%.

What about the pest or weed control at 4483.4 g/ha (Crabgrass (CG) [2]; [10]) of the same compound?
Its pest or weed control at 4483.4 g/ha is 90%.

And the pest or weed control at 4483.4 g/ha (Barnyard grass (BG) [3])?
The pest or weed control at 4483.4 g/ha was 60%.

What about the pest or weed control at 4483.4 g/ha (Bean (BN); [11]) of the same compound?
The pest or weed control at 4483.4 g/ha was 90%.

And the pest or weed control at 4483.4 g/ha (Corn (CN))?
The pest or weed control at 4483.4 g/ha was 30%.

And the pest or weed control at 4483.4 g/ha (Turnip (TP) [4]; [12])?
Its pest or weed control at 4483.4 g/ha is 90%.

Which results are given for `CCCCS(=O)(=O)c1nnc(NC(=O)NC)s1` [Example 65]?
pest or weed control at 4483.4 g/ha (Johnson grass (JG) [1]): 60%; pest or weed control at 4483.4 g/ha (Cotton (CT); [9]): 70%; pest or weed control at 4483.4 g/ha (Crabgrass (CG) [2]; [10]): 90%; pest or weed control at 4483.4 g/ha (Barnyard grass (BG) [3]): 90%; pest or weed control at 4483.4 g/ha (Bean (BN); [11]): 100%; pest or weed control at 4483.4 g/ha (Corn (CN)): 30%; pest or weed control at 4483.4 g/ha (Turnip (TP) [4]; [12]): 100%

Which “Pre-emergence activity, % control, TP” value (Turnip (TP) [5]; 5 lb/acre) does the source give for `NC(=O)Nc1nnc(C(F)(F)F)s1` [Example 70] here?
Its value is 10%.

What about the “Pre-emergence activity, % control, TP” value (Turnip (TP) [5]; 10 lb/acre) of the same compound?
Its value is 10%.

What about the “Pre-emergence activity, % control, CG” value (Crabgrass (CG) [6]; 5 lb/acre) of the same compound?
The value was 10%.

And the “Pre-emergence activity, % control, CG” value (Crabgrass (CG) [6]; 10 lb/acre)?
Its value is 10%.

And the “Post-emergence activity, % control, CT” value (Cotton (CT); 5 lb/acre)?
Its value is 20%.

What about the “Post-emergence activity, % control, CT” value (Cotton (CT); 10 lb/acre) of the same compound?
The value was 20%.

What about the “Post-emergence activity, % control, CG” value (Crabgrass (CG) [2]; 5 lb/acre) of the same compound?
Its value is 20%.

And the “Post-emergence activity, % control, CG” value (Crabgrass (CG) [2]; 10 lb/acre)?
Its value is 20%.

And the “Post-emergence activity, % control, BN” value (Bean (BN); 5 lb/acre)?
The value was 50%.

What about the “Post-emergence activity, % control, BN” value (Bean (BN); 10 lb/acre) of the same compound?
The value was 50%.

And the “Post-emergence activity, % control, TP” value (Turnip (TP) [4]; 5 lb/acre)?
Its value is 80%.

What about the “Post-emergence activity, % control, TP” value (Turnip (TP) [4]; 10 lb/acre) of the same compound?
Its value is 80%.

`CNC(=O)Nc1nnc(C(C)C)s1` [Example 82] was tested. Which pest or weed control at 4483.4 g/ha (Turnip (TP) [5]; [13]) did it give?
The pest or weed control at 4483.4 g/ha was 20%.

What about the pest or weed control at 4483.4 g/ha (Crabgrass (CG) [6]; [14]) of the same compound?
Its pest or weed control at 4483.4 g/ha is 30%.

And the pest or weed control at 4483.4 g/ha (Cotton (CT); [9])?
Its pest or weed control at 4483.4 g/ha is 80%.

What about the pest or weed control at 4483.4 g/ha (Crabgrass (CG) [2]; [10]) of the same compound?
The pest or weed control at 4483.4 g/ha was 50%.

What about the pest or weed control at 4483.4 g/ha (Bean (BN); [11]) of the same compound?
Its pest or weed control at 4483.4 g/ha is 60%.

And the pest or weed control at 4483.4 g/ha (Johnson grass (JG) [7]; 4 lb/acre)?
The pest or weed control at 4483.4 g/ha was 0%.

And the pest or weed control at 4483.4 g/ha (Turnip (TP) [4]; [12])?
Its pest or weed control at 4483.4 g/ha is 80%.

Which pest or weed control at 11208.5 g/ha (Turnip (TP) [5]; Brassica rapa, pre-emergence, 336 h, 10 lb/acre) does the source give for `Cc1nnc(NC(N)=O)s1` [Example 84, reference compound] here?
Its pest or weed control at 11208.5 g/ha is 0%.

And the pest or weed control at 11208.5 g/ha (Crabgrass (CG) [6]; Digitaria sanguinalis, pre-emergence, 336 h, 10 lb/acre)?
Its pest or weed control at 11208.5 g/ha is 0%.

And the pest or weed control at 11208.5 g/ha (Cotton (CT); Gossypium hirsutum, post-emergence, 336 h, 10 lb/acre)?
The pest or weed control at 11208.5 g/ha was 20%.

What about the pest or weed control at 11208.5 g/ha (Crabgrass (CG) [2]; Digitaria sanguinalis, post-emergence, 336 h, 10 lb/acre) of the same compound?
The pest or weed control at 11208.5 g/ha was 20%.

What about the pest or weed control at 11208.5 g/ha (Bean (BN); Phaseolus vulgaris, post-emergence, 336 h, 10 lb/acre) of the same compound?
The pest or weed control at 11208.5 g/ha was 50%.

What about the pest or weed control at 11208.5 g/ha (Johnson grass (JG) [7]; 10 lb/acre) of the same compound?
The pest or weed control at 11208.5 g/ha was 50%.

And the pest or weed control at 11208.5 g/ha (Turnip (TP) [4]; Brassica rapa, post-emergence, 336 h, 10 lb/acre)?
Its pest or weed control at 11208.5 g/ha is 80%.

Which results are given for `CNC(=O)Nc1nnc(C2CC2)s1` [Example 85]?
pest or weed control at 4483.4 g/ha (Barnyard grass (BG) [8]): 0%; pest or weed control at 4483.4 g/ha (Turnip (TP) [5]; [13]): 0%; pest or weed control at 4483.4 g/ha (Crabgrass (CG) [6]; [14]): 0%; pest or weed control at 4483.4 g/ha (Cotton (CT); [9]): 80%; pest or weed control at 4483.4 g/ha (Crabgrass (CG) [2]; [10]): 30%; pest or weed control at 4483.4 g/ha (Bean (BN); [11]): 50%; pest or weed control at 4483.4 g/ha (Turnip (TP) [4]; [12]): 60%
